In patent publication US8110585B2, “Bicyclic compound and pharmaceutical use thereof” (Takeda Pharmaceutical Company Limited, priority 2007, dated 2012):

Tests used:
[1] = molecular target: T1, human melatonin 1 receptors (human MT1 receptors) (Homo sapiens, UniProt P48039); test: Melatonin receptor binding inhibitory test, 2-[125I] Iodomelatonin, MT1; conditions: membrane fraction of CHO-hMelR7 cells, 25° C. for 2.5 hr, read-out: binding inhibitory activity as IC50 value for MT1
T1 construct: expressed in transfected cells; membrane fraction
Procedure: (§1) Melatonin Receptor Binding Inhibitory Test
(1) Preparation of CHO-hMelR7 Cells expressing Human Melatonin 1 Receptors
A cDNA fragment (SEQ ID NO: 1) encoding full-length of human melatonin 1 receptors (human MT1 receptors) was incorporated into expression vector pAKKO-111H (former name pAKKO1.11H; Biochim Biophys Acta. Vol. 1219(2), pp. 251-259, 1994) to give plasmid pAKKO-hMelR7 for animal cell expression. CHO/dhfr-cells (ATCC, #CRL-9096) were plated at a concentration of 0.3×10^6 cells/dish in a 6 cm culture dish (Becton Dickinson), and cultured under the conditions of 37° C., 5% CO2 for 48 hr. The cells were transfected with pAKKO-hMelR7 plasmid DNA (5 μg) using Cellphect Transfection Kit (Amersham, #27-9268-01). The transfected cells were cultured in Dulbecco's modified Eagle medium (DMEM) (Sigma, #D6046) containing 10% dialyzed FBS (Biowest, #S180D), 1× Non-Essential Amino Acid (Invitrogen, #11140-050) and 50 μg/mL Gentamycin (Invitrogen, #15750-060), and the cell line that stably expressed the plasmid gene was selected. By a receptor binding assay using 2-[^125I] Iodomelatonin, CHO-hMelR7 cell line showing specific binding of 2-[^125I] Iodomelatonin was selected from the obtained clones.
(§2) (3) Preparation of Cellular Membrane Fraction of CHO Cell (CHO-hMelR7 and CHO-hMT2) Stably Expressing Human MT1 and MT2 Receptors
(§3) CHO-hMelR7 and CHO-hMT2 cells were plated using Cellfactory (Nunc, #170009) under the conditions of 1×10^8 cells/2000 mL/flask. The cells were grown to confluent, and recovered by the following method. As the medium for CHO-hMelR7 and CHO-hMT2, MEM a containing 10% FBS and penicillin/streptomycin was used. […]
(§4) The medium was discarded, cells were washed twice with 200 mL of EDTA/PBS(−), 200 mL of EDTA/PBS(−) was further added, and the cells were stood still at room temperature for 20 min until they were released. The cells were recovered in four 50 mL tubes (Becton Dickinson, #352070), and centrifuged at 1,500 rpm for 10 min at 4° C. using a low speed cooling centrifuge (Hitachi, CF7D2). The supernatant was discarded, the pellets in the four tubes were suspended in 10 mL of PBS(−), and combined in one tube (Becton Dickinson, #352070). The mixture was further centrifuged at 1,500 rpm for 10 min at 4° C., and the obtained pellets were suspended in 20 mL of ice-cooled homogenizing buffer [10 mM NaHCO3, 5 mM EDTA, Protease inhibitor Complete (Roche), pH 7.4]. The cell suspension was homogenized 3 times using a polytron homogenizer at 20,000 rpm for 30 sec. The obtained homogenate was centrifuged (2,000 rpm, 10 min, 4° C.) using a low speed cooling centrifuge. The supernatant was recovered in an ultracentrifugation tube and ultracentrifuged (40,000 rpm, 60 min, 4° C.) using an ultracentrifuge (Beckman, L-90K). To the obtained pellets was added a suspending buffer [50 mM Tris-HCl, 1 mM EDTA, Protease inhibitor Complete (Roche), pH 7.4], and the pellets were suspended by pipetting. The protein concentration of this suspension was measured, diluted to 2 mg/mL to give cellular membrane fractions of CHO-hMelR7 and CHO-hMT2 cells. The membrane fractions were dispensed to 1.5 mL tubes (Eppendorf, #0030120.086) by 100 μL, preserved in a freezer (−80° C.) and used for a binding assay. Protein was quantified using BCA protein assay kit (Pierce) with BSA as the standard.
(§5) (4) Preparation of Membrane Fraction Suspension
(§6) Immediately before use, the membrane fractions of CHO-hMelR7 and CHO-hMT2 cells of the above-mentioned (3) were diluted 20-fold with assay buffer (50 mM Tris-HCl, pH 7.7).
(§7) (5) Preparation of 2-[^125I] Iodomelatonin Solution
(§8) 2-[^125I] Iodomelatonin (#NEX236, PerkinElmer) was diluted with the assay buffer to 400 pM for MT1 and 1 nM for MT2.
The assay buffer (80 μL) of the above-mentioned (4) was added to each well of a 96-well plate (type 3363, Corning). Then, a test compound (compound solution diluted with DMSO to 200-fold of the final measurement concentration) was added by 2 μL. […]

[2] = molecular target: T2, human melatonin 2 receptors (human MT2 receptors) (Homo sapiens, UniProt P49286); test: Melatonin receptor binding inhibitory test, 2-[125I] Iodomelatonin, MT2; conditions: membrane fraction of CHO-hMT2 cells, 25° C. for 2.5 hr, read-out: binding inhibitory activity as IC50 value for MT2
T2 construct: expressed in transfected cells; membrane fraction
T2 sequence (P49286 1-362): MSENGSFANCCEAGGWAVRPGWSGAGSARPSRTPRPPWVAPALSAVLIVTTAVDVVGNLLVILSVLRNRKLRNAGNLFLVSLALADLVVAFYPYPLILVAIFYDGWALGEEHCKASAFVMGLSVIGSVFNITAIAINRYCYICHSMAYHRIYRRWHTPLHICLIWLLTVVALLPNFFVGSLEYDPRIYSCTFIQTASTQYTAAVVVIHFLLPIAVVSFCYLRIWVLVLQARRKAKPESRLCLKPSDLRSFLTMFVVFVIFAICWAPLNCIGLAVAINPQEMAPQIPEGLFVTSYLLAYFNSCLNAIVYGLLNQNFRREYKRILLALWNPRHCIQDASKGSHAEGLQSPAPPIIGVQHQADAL
Procedure: as §1
(2) Preparation of CHO-hMT2 Cells Expressing Human Melatonin 2 Receptors
A cDNA fragment (SEQ ID NO: 2) encoding full-length of human melatonin 2 receptors (human MT2 receptors) was incorporated into expression vector pCMV-Script (Stratagene, #212220) to give the plasmid that was pCMV-human MT2 receptors expression vector for animal cell expression. CHO-K1 cells (ATCC, #CCL-61) were plated at the concentration of 1.5×10^5 cells/cm^2 in a 6 well plate (ASAHI TECHNO GLASS), and cultured under the conditions of 37° C., 5% CO2 for 24 hr. For gene transfection, solution obtained by blending pCMV-human MT2 receptors expression vector (1.9 μg), Lipofectamine Transfection Reagent (Invitrogen, #18324-012) (11.3 μL) and Minimum Essential Medium Eagle (MEM) medium (Sigma, M8042) (93.8 μL), and reacting at room temperature for 20 min was added to the cells per one well. The transfected cells were cultured in MEM medium containing 10% FBS (Life Technology) and 300 μg/mL Geneticin (GIBCO, #10131), and the cell line that stably expressed the plasmid gene was selected. By a receptor binding assay using 2-[^125I] Iodomelatonin, CHO-hMT2 cell line showing specific binding of 2-[^125I] Iodomelatonin was selected from the obtained clones.
as §2, §3, §4, §5, §6, §7, §8
The assay buffer (80 μL) of the above-mentioned (4) was added to each well of a 96-well plate (type 3363, Corning). […]

T1 sequence (P48039 whole entry): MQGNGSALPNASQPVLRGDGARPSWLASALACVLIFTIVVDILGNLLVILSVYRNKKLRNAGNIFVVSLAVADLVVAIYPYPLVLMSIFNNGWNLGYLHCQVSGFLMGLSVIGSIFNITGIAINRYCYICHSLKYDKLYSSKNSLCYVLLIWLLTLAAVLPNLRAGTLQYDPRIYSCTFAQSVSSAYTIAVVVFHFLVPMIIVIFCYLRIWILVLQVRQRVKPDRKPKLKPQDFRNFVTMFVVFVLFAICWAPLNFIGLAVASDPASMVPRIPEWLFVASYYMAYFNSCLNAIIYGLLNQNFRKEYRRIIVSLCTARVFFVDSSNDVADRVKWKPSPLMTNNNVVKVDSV

Row | SMILES | IC50 [1] | melting point | IC50 [2]
1 | Cc1cc2c([C@H]3C[C@@H]3CNC(=O)C3CC3)cccn2n1 [Example 48, N-{[(1S,2S)-2-(2-methylpyrazolo[1,5-a]pyridin-4-yl)cyclopropyl]methyl}cyclopropanecarboxamide] | ≤ 100 nM | 124 to 128 °C | ≤ 100 nM
2 | Cc1cc2c([C@@H]3C[C@H]3CNC(=O)C3CC3)cccn2n1 [Example 49, N-{[(1R,2R)-2-(2-methylpyrazolo[1,5-a]pyridin-4-yl)cyclopropyl]methyl}cyclopropanecarboxamide] | ≤ 100 nM | 127 to 129 °C | ≤ 100 nM
3 | CC(=O)NCC1CC1c1cccc2nc(C)cn12 (stereo not drawn) [Example 52, N-{[2-(2-methylimidazo[1,2-a]pyridin-5-yl)cyclopropyl]methyl}acetamide] | ≤ 100 nM | 170 to 171 °C | ≤ 100 nM
4 | CCC(=O)NCC1CC1c1cccc2nc(C)cn12 (stereo not drawn) [Example 53, N-{[2-(2-methylimidazo[1,2-a]pyridin-5-yl)cyclopropyl]methyl}propanamide] | ≤ 100 nM | 88 to 90 °C | ≤ 100 nM
5 | CC(=O)NCC1CC1c1cccc2nc(C)nn12 (stereo not drawn) [Example 56, N-{[2-(2-methyl[1,2,4]triazolo[1,5-a]pyridin-5-yl)cyclopropyl]methyl}acetamide] | ≤ 100 nM | 124 to 126 °C | ≤ 100 nM

Further lines, results first:

Row | IC50 [1] | melting point | IC50 [2] | SMILES
6 | ≤ 100 nM | 118 to 119 °C | ≤ 100 nM | CCC(=O)NCC1CC1c1cccc2nc(C)nn12 (stereo not drawn) [Example 57, N-{[2-(2-methyl[1,2,4]triazolo[1,5-a]pyridin-5-yl)cyclopropyl]methyl}propanamide]
7 | ≤ 100 nM | 96 to 98 °C | ≤ 100 nM | CC(=O)NCC1CC1c1cccc2nc(C)sc12 (stereo not drawn) [Example 58, N-{[2-(2-methyl-1,3-benzothiazol-7-yl)cyclopropyl]methyl}acetamide]
8 | ≤ 100 nM | 59 to 61 °C | ≤ 100 nM | CCC(=O)NCC1CC1c1cccc2nc(C)sc12 (stereo not drawn) [Example 59, N-{[2-(2-methyl-1,3-benzothiazol-7-yl)cyclopropyl]methyl}propanamide]
9 | ≤ 100 nM | 81 to 82 °C | ≤ 100 nM | CC(=O)NCC1CC1c1cccc2nnsc12 (stereo not drawn) [Example 60, N-{[2-(1,2,3-benzothiadiazol-7-yl)cyclopropyl]methyl}acetamide]
10 | ≤ 100 nM | 67 to 69 °C | ≤ 100 nM | CCC(=O)NCC1CC1c1cccc2nnsc12 (stereo not drawn) [Example 61, N-{[2-(1,2,3-benzothiadiazol-7-yl)cyclopropyl]methyl}propanamide]
11 | ≤ 100 nM | 96 to 97 °C | ≤ 100 nM | CC(=O)NCC1CC1c1cccc2nscc12 (stereo not drawn) [Example 62, N-{[2-(2,1-benzisothiazol-4-yl)cyclopropyl]methyl}acetamide]
12 | ≤ 100 nM | 84 to 86 °C | ≤ 100 nM | CCC(=O)NCC1CC1c1cccc2nscc12 (stereo not drawn) [Example 63, N-{[2-(2,1-benzisothiazol-4-yl)cyclopropyl]methyl}propanamide]
